Laboratory results: ChEMBL document CHEMBL5550115, “Histone deacetylase (HDAC) inhibitor specificity determinants are preserved in a class of dual HDAC/non-covalent proteasome inhibitors” (Bioorg Med Chem, 2024)
pIC50: −log10 of the molar value.

What was measured:
[1] = target: 20S proteasome; experiment: Inhibition of human 20S proteasome chymotrypsin-like activity using Suc-LLVY-Glo as a […] substrate measured after 10 mins by luminescence based analysis; assay type: protein-complex assay
[2] = test system: A-375; experiment: Antiproliferative activity against human A-375 cells assessed as inhibition of cell growth measured after 48 hrs by cell titer-blue cell viability assay; assay type: functional, cell-based; conditions: A-375, 48 h
[3] = test system: RPMI-8226; experiment: Antiproliferative activity against human RPMI-8226 cells assessed as inhibition of cell growth measured after 72 hrs by MTS method; assay type: functional, cell-based; conditions: RPMI-8226, 72 h
[4] = target: T1, Proteasome Macropain subunit MB1 (Homo sapiens, UniProt P28074); experiment: Inhibition of human 20S proteosome beta5c subunit using Ac-WLA-AMC as substrate by microplate reader analysis
T1 sequence (P28074 whole entry): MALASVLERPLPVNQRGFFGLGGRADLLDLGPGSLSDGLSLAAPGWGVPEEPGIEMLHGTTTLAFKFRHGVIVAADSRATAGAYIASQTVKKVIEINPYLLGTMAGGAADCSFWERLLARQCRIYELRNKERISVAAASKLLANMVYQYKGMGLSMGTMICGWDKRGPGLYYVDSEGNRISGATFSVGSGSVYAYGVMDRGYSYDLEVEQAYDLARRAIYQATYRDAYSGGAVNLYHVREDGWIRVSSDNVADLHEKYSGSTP

[5] = target: T2, Protein deacetylase HDAC6 (Homo sapiens) (UniProt Q9UBN7); experiment: Inhibition of HDAC6 (unknown origin) at 1 uM incubated for 1 hr by fluorescence based microplate reader analysis relative to control
T2 sequence (whole entry): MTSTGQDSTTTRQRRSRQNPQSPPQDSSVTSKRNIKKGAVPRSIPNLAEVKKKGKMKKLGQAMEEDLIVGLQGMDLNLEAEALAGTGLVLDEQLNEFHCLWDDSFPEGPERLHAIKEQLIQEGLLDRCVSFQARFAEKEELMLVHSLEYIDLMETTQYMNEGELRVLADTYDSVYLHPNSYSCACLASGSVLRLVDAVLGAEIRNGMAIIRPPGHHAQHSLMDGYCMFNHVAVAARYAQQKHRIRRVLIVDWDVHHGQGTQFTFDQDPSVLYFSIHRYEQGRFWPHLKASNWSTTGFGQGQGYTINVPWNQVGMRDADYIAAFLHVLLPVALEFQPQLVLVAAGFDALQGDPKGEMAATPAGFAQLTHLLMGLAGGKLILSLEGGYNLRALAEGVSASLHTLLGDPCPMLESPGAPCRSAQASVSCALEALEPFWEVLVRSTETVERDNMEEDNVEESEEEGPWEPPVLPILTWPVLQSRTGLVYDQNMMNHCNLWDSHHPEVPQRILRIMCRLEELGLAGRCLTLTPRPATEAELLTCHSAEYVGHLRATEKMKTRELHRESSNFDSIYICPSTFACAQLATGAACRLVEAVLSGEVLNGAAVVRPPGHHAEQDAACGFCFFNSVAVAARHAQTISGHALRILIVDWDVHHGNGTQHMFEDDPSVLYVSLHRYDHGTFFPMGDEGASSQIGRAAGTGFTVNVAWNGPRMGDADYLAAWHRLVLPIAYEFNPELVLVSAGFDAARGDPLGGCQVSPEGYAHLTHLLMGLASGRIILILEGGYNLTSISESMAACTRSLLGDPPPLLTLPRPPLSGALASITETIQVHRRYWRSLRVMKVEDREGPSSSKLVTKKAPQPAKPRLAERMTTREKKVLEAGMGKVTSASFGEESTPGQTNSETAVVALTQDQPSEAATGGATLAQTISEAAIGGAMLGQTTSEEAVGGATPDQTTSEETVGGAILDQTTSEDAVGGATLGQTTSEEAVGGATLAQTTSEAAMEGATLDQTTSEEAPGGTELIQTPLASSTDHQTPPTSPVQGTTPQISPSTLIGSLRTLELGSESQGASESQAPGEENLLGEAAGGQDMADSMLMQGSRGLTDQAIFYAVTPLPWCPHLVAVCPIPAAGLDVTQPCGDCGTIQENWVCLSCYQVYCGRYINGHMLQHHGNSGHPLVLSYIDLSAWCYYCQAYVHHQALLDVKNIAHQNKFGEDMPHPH

[6] = target: Histone deacetylase 1 (Homo sapiens) (UniProt Q13547); experiment: Inhibition of HDAC1 (unknown origin) at 1 uM incubated for 1 hr by fluorescence based microplate reader analysis relative to control
Chain of Histone deacetylase 1 (Homo sapiens) (Q13547 whole entry): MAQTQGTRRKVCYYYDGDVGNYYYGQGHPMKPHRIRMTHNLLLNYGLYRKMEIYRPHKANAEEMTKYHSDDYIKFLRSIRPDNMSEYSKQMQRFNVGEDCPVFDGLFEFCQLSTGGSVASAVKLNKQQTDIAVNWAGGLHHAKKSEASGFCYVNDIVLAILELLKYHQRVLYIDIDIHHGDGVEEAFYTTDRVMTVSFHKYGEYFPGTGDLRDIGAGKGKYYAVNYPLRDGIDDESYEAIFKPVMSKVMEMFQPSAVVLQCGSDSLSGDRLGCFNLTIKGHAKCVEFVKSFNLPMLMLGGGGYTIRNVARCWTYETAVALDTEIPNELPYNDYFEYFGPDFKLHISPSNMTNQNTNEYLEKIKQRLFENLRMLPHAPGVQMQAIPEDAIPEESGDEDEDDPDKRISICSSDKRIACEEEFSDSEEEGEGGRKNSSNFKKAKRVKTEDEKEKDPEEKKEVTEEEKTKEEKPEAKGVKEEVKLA

pIC50 [1]	pIC50 [2]	pIC50 [3]	pIC50 [4]	inhibition [5]	inhibition [6]	SMILES
6.70	5.74	5.15	–	–	–	C[C@H](NC(=O)[C@H](CC(=O)NCC(C)(C)C)NC(=O)c1ccc(/C=C/C(=O)NO)cc1)C(=O)NCc1ccc(F)cc1F
6.14	5.05	4.94	8.62	–	–	C[C@H](NC(=O)[C@H](CC(=O)NCC(C)(C)C)NC(=O)c1c[nH]c2ccccc12)C(=O)NCc1ccc(F)cc1F
< 4.52	–	< 4.30	–	–	–	C[C@H](NC(=O)[C@H](CC(=O)NCC(C)(C)C)NC(=O)CCCCCCC(=O)NO)C(=O)NCc1ccc(F)cc1F
–	< 4.30	< 4.30	–	13%	65%	C[C@H](NC(=O)[C@H](CC(=O)NCC(C)(C)C)NC(=O)c1ccc(C(=O)Nc2ccccc2N)cc1)C(=O)NCc1ccc(F)cc1F
< 4.52	–	< 4.30	–	–	–	C[C@H](NC(=O)[C@H](CC(=O)NCC(C)(C)C)NC(=O)c1ccc(C(=O)NO)cc1)C(=O)NCc1ccc(F)cc1F
< 4.52	< 4.30	< 4.30	–	–	–	C[C@H](NC(=O)[C@H](CC(=O)NCC(C)(C)C)NC(=O)CCC(=O)Nc1ccc(C(=O)NO)cc1)C(=O)NCc1ccc(F)cc1F
